According to patent publication US10562898B2, “Substituted benzenesulfonamides as inhibitors of alpha-4 beta-7 integrin activity” (EA PHARMA CO., LTD., priority 2016, dated 2020):

Molecular target: T1, α4β1 integrin (Homo sapiens, UniProt P05556+P13612)
T1 construct: a cell line Jurkat, which is known to express α4β1 integrin; endogenous in cells; host or cells: Jurkat (human T cell line)
Experiment: VCAM-1/α4β1 integrin binding inhibitory activity evaluation test (Jurkat cells binding to VCAM-1/Fc)
Assay type: cell-based
Settings: recombinant human VCAM-1/Fc
Description: (1) VCAM-1/α4β1 Integrin Binding Inhibitory Activity Evaluation Test
Each test substance was measured in terms of an ability to inhibit the VCAM-1 binding of a human T cell line, namely, a cell line Jurkat, which is known to express α4β1 integrin.
A solution of recombinant human VCAM-1/Fc (R&D Systems, Inc.) (1 μg/mL) diluted with a buffer A (carbonate buffer, pH 9.6) was placed in an amount of 50 μL/well in a 96-well microtiter plate, followed by incubation at 4° C. overnight. After the plate was washed with PBS once, 150 μL/well of Block Ace (Snow Brand Milk Products Co., Ltd.) was added, followed by incubation at room temperature for 2 hours. After removal, the plate was washed with PBS once.
Then, 100 μL of the Jurkat cells (2×10^6 cells/mL) and 100 μL of the test substance at each of various concentrations diluted with a binding buffer (DMEM containing 40 mM HEPES, 0.2% BSA, and 4 mM MnCl2) were added to the plate coated with the VCAM-1/Fc (5×10^5 cells/well), followed by incubation at 30° C. for 15 to 60 minutes. After the cells were bound to the wells, the plate was washed with PBS to remove unbound cells. A buffer C (PBS containing 1.5% Triton X-100) was added in an amount 50 μL/well to the plate to lyse the bound Jurkat cells. After 30 μL of a substrate buffer (Promega, CytoTox 96 Non-Radioactive Cytotoxicity Assay) was added to 30 μL of the cell lysate, a reaction was allowed to proceed at room temperature in the dark for 30 minutes. After 30 μL of a stop solution (Promega, CytoTox 96 Non-Radioactive Cytotoxicity Assay) was added to each, and then an absorbance at 490 nm was measured using a plate reader. The absorbance obtained here represents a detection result of an activity of lactate dehydrogenase (LDH) eluted in the supernatant of each well, that is, the absorbance is proportional to the number of Jurkat cells bound to the VCAM-1 and thus remaining on the plate. The test was performed in duplicate. Provided that the absorbance of a well containing no test substance was 100%, a cell binding rate with the test substance at each of the various concentrations was figured out, and a concentration IC50 which brought about 50% binding inhibition was calculated.

T1 sequence (P13612 34-1032): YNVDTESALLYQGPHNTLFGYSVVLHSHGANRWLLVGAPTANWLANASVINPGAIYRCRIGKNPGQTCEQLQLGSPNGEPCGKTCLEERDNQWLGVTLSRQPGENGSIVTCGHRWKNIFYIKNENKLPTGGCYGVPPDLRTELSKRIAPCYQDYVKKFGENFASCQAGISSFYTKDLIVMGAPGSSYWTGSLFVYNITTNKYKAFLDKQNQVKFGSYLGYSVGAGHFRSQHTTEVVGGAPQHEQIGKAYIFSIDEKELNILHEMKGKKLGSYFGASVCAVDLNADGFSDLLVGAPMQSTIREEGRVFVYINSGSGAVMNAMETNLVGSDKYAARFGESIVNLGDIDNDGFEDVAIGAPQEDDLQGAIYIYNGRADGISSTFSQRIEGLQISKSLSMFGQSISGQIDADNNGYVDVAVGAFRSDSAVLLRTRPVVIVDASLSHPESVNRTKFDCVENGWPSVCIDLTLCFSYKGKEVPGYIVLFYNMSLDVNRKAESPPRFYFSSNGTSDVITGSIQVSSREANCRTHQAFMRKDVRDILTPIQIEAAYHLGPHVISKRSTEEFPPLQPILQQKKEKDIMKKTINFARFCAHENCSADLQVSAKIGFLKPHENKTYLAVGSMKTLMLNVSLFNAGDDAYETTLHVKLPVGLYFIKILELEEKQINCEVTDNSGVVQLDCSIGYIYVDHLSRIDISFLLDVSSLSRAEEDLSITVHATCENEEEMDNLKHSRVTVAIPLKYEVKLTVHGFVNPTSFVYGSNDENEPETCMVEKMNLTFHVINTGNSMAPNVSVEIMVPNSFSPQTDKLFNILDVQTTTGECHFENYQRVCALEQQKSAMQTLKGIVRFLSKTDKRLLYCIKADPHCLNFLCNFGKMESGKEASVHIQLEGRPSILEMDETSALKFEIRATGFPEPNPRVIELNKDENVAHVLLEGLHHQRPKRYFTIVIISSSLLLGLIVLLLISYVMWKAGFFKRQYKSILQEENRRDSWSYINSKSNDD
T1 sequence (P05556 21-798): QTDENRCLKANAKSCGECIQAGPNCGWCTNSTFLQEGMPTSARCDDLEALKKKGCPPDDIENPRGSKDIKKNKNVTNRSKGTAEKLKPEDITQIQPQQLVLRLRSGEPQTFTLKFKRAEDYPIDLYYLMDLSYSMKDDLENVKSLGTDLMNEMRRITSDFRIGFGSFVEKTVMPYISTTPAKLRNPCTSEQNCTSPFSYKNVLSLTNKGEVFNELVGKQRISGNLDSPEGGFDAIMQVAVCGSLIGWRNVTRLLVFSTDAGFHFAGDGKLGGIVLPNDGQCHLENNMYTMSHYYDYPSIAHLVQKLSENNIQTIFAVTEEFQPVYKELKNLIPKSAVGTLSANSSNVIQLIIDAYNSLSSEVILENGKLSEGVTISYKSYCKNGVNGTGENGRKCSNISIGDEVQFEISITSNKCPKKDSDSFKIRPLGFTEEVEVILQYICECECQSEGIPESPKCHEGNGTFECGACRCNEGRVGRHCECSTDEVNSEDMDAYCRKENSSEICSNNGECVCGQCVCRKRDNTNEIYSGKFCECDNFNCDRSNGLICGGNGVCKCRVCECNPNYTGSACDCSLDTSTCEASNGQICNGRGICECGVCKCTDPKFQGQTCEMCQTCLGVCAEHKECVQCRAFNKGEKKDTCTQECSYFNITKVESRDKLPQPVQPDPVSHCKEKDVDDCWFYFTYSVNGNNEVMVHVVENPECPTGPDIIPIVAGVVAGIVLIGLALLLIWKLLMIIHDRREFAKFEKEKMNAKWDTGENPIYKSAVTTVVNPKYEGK

Row | Compound | IC50 [nM]
1 | Cn1ccc(=O)n(-c2ccc(C[C@H](NC(=O)c3cc(F)c(NS(=O)(=O)c4ccc(NC(=O)C(C)(C)C)cc4)cc3F)C(=O)O)nc2)c1=O [Compound A70] | 38000
2 | Cc1cn(C)c(=O)n(-c2ccc(C[C@H](NC(=O)c3cc(F)c(NS(=O)(=O)c4ccc(NC(=O)C(C)C)cc4)cc3F)C(=O)O)cn2)c1=O [Compound A71] | 15000
3 | Cc1c(C)n(C)c(=O)n(-c2ccc(C[C@H](NC(=O)c3cc(F)c(NS(=O)(=O)c4cc(NC(=O)C(C)(C)C)cs4)cc3F)C(=O)O)cc2)c1=O [Compound A11] | 3200
4 | Cn1ccc(=O)n(-c2ccc(C[C@H](NC(=O)c3cc(F)c(NS(=O)(=O)c4ccc(NC(=O)C(C)(C)CO)cc4)cc3F)C(=O)O)cn2)c1=O [Compound A62] | > 31200
5 | Cc1cn(C)c(=O)n(-c2ccc(C[C@H](NC(=O)c3cc(F)c(NS(=O)(=O)c4ccc(NC(=O)C(C)(C)CO)cc4)cc3F)C(=O)O)cn2)c1=O [Compound A63] | > 31200
6 | Cc1c(C)n(C)c(=O)n(-c2ccc(C[C@H](NC(=O)c3cc(F)c(NS(=O)(=O)c4ccc(NC(=O)C(C)(C)C)cc4)cc3F)C(=O)O)cn2)c1=O [Compound A28] | 3600
7 | Cn1c2c(c(=O)n(-c3ccc(C[C@H](NC(=O)c4cc(F)c(NS(=O)(=O)c5ccc(NC(=O)C(C)(C)C)cc5)cc4F)C(=O)O)cn3)c1=O)COCC2 [Compound A44] | 3400
8 | Cc1c(C)n(C)c(=O)n(-c2ccc(C[C@H](NC(=O)c3cc(F)c(NS(=O)(=O)c4ccc(NC(=O)C(C)(C)CO)cc4)cc3F)C(=O)O)cc2)c1=O [Compound A21] | 680
9 | Cc1c(C)n(C)c(=O)n(-c2ccc(C[C@H](NC(=O)c3cc(F)c(NS(=O)(=O)c4ccc(NC(=O)C(C)(C)C)cn4)cc3F)C(=O)O)cn2)c1=O [Compound A32] | 4400
10 | Cn1c2c(c(=O)n(-c3ccc(C[C@H](NC(=O)c4cc(F)c(NS(=O)(=O)c5ccc(NC(=O)C(C)(C)C)cc5)cc4F)C(=O)O)nc3)c1=O)CCCC2 [Compound A47] | 4100
11 | Cn1ccc(=O)n(-c2ccc(C[C@H](NC(=O)c3cc(F)c(NS(=O)(=O)c4ccc(NC(=O)C(C)(C)C)cc4)cc3F)C(=O)O)cn2)c1=O [Compound A53] | > 31200
12 | Cc1cn(C)c(=O)n(-c2ccc(C[C@H](NC(=O)c3cc(F)c(NS(=O)(=O)c4ccc(NC(=O)C#CC(C)(C)C)cc4)cc3F)C(=O)O)cn2)c1=O [Compound A68] | 2300
13 | Cc1c(C)n(C)c(=O)n(-c2ccc(C[C@H](NC(=O)c3cc(F)c(NS(=O)(=O)c4ccc(-n5ccc(C6CCOCC6)cc5=O)cc4)cc3F)C(=O)O)cc2)c1=O [Compound A34] | 3600
14 | Cc1c(C)n(C)c(=O)n(-c2ccc(C[C@H](NC(=O)c3cc(F)c(NS(=O)(=O)c4ccc(NC(=O)C5(C(F)(F)F)CC5)cc4)cc3F)C(=O)O)cc2)c1=O [Compound A20] | 850
15 | Cc1cn(C)c(=O)n(-c2ccc(C[C@H](NC(=O)c3cc(F)c(NS(=O)(=O)c4ccc(NC(=O)C5(C#N)CC5)cc4)cc3F)C(=O)O)cn2)c1=O [Compound A60] | 12000
16 | Cc1c(C)n(C)c(=O)n(-c2ccc(C[C@H](NC(=O)c3cc(F)c(NS(=O)(=O)c4ccc(NC(=O)C5(O)CC5)cc4)cc3F)C(=O)O)cc2)c1=O [Compound A22] | 830
17 | Cn1cc(C(F)(F)F)c(=O)n(-c2ccc(C[C@H](NC(=O)c3cc(F)c(NS(=O)(=O)c4ccc(NC(=O)C(C)(C)C)cc4)cc3F)C(=O)O)cn2)c1=O [Compound A67] | 19000
18 | Cn1c(C(F)(F)F)cc(=O)n(-c2ccc(C[C@H](NC(=O)c3cc(F)c(NS(=O)(=O)c4ccc(NC(=O)C(C)(C)C)cc4)cc3F)C(=O)O)cn2)c1=O [Compound A66] | 19000
19 | Cn1ccc(=O)n(-c2ccc(C[C@H](NC(=O)c3cc(F)c(NS(=O)(=O)c4ccc(NC(=O)C5(C(F)(F)F)CC5)cc4)cc3F)C(=O)O)cn2)c1=O [Compound A55] | > 31200
20 | Cn1ccc(=O)n(-c2ccc(C[C@H](NC(=O)c3cc(F)c(NS(=O)(=O)c4ccc(NC(=O)C5(C#N)CC5)cc4)cc3F)C(=O)O)cn2)c1=O [Compound A59] | > 31200
21 | Cc1c(C)n(C)c(=O)n(-c2ccc(C[C@H](NC(=O)c3cc(F)c(NS(=O)(=O)c4ccc(N(C)C(=O)C(C)(C)C)cc4)cc3F)C(=O)O)cc2)c1=O [Compound A35] | 3800
22 | Cc1cn(C)c(=O)n(-c2ccc(C[C@H](NC(=O)c3cc(F)c(NS(=O)(=O)c4ccc(NC(=O)C5(C(F)(F)F)CC5)cc4)cc3F)C(=O)O)cn2)c1=O [Compound A56] | 19000
23 | Cc1c(C)n(C)c(=O)n(-c2ccc(C[C@H](NC(=O)c3cc(F)c(NS(=O)(=O)c4ccc(NC(=O)C5CCOCC5)cc4)cc3F)C(=O)O)cc2)c1=O [Compound A15] | 950
24 | Cc1cc(=O)n(-c2ccc(C[C@H](NC(=O)c3cc(F)c(NS(=O)(=O)c4ccc(NC(=O)C(C)(C)C)cc4)cc3F)C(=O)O)nc2)c(=O)n1C [Compound A72] | 9300

The next lines start with the values.

Row | IC50 [nM] | Compound
25 | 1400 | Cn1c(=O)n(-c2ccc(C[C@H](NC(=O)c3cc(F)c(NS(=O)(=O)c4ccc(NC(=O)C5(C(F)(F)F)CC5)cc4)cc3F)C(=O)O)cc2)c(=O)c2ccncc21 [Compound A24]
26 | 720 | Cn1c(=O)n(-c2ccc(C[C@H](NC(=O)c3cc(F)c(NS(=O)(=O)c4ccc(NC(=O)C(C)(C)CO)cc4)cc3F)C(=O)O)cc2)c(=O)c2ccncc21 [Compound A18]
27 | 4100 | Cc1cn(C)c(=O)n(-c2ccc(C[C@H](NC(=O)c3cc(F)c(NS(=O)(=O)c4ccc(NC(=O)C(C)(C)C)cc4)cc3F)C(=O)O)cc2)c1=O [Compound A37]
28 | 2400 | CCC(CC)C(=O)Nc1ccc(S(=O)(=O)Nc2cc(F)c(C(=O)N[C@@H](Cc3ccc(-n4c(=O)c5ccncc5n(C)c4=O)cc3)C(=O)O)cc2F)cc1 [Compound A3]
29 | 1200 | Cn1c(=O)n(-c2ccc(C[C@H](NC(=O)c3cc(F)c(NS(=O)(=O)c4ccc(NC(=O)C(C)(C)C)c(F)c4)cc3F)C(=O)O)cc2)c(=O)c2ccncc21 [Compound A12]
30 | 890 | Cn1c(=O)n(-c2ccc(C[C@H](NC(=O)c3cc(F)c(NS(=O)(=O)c4ccc(NC(=O)C5CCNCC5)cc4)cc3F)C(=O)O)cc2)c(=O)c2ccncc21 [Compound A6, (2S)-2-[[2,5-difluoro-4-[[4-(piperidine-4-carbonylamino)phenyl]sulfonylamino]benzoyl]amino]-3-[4-(1-methyl-2,4-dioxo-pyrido[3,4-d]pyrimidin-3-yl)phenyl]propanoic acid]
31 | 1800 | Cc1c(C)n(C)c(=O)n(-c2ccc(C[C@H](NC(=O)c3cc(F)c(NS(=O)(=O)c4cccc(NC(=O)C(C)(C)C)c4)cc3F)C(=O)O)cc2)c1=O [Compound A49]
32 | 1800 | COc1cc2c(=O)n(-c3ccc(C[C@H](NC(=O)c4cc(F)c(NS(=O)(=O)c5ccc(NC(=O)C(C)(C)C)cc5)cc4F)C(=O)O)cc3)c(=O)n(C)c2cn1 [Compound A36]
33 | 1900 | Cn1c(=O)n(-c2ccc(C[C@H](NC(=O)c3cc(F)c(NS(=O)(=O)c4ccc(NC(=O)C(C)(C)C)cn4)cc3F)C(=O)O)cn2)c(=O)c2ccncc21 [Compound A31]
34 | 1100 | CC(=O)Nc1ccc(S(=O)(=O)Nc2cc(F)c(C(=O)N[C@@H](Cc3ccc(-n4c(=O)c5ccncc5n(C)c4=O)cc3)C(=O)O)cc2F)cc1 [Compound A2]
35 | 2000 | Cn1c(=O)n(-c2ccc(C[C@H](NC(=O)c3cc(F)c(NS(=O)(=O)c4ccc(NC(=O)NC(C)(C)C)cc4)cc3F)C(=O)O)cc2)c(=O)c2ccncc21 [Compound A5]
36 | 1600 | Cc1c(C)n(C)c(=O)n(-c2ccc(C[C@H](NC(=O)c3cc(F)c(NS(=O)(=O)c4ccc(NC(=O)C(C)(C)C)cc4)cc3F)C(=O)O)cc2)c1=O [Compound A8]
37 | 480 | CN1CCc2c(n(C)c(=O)n(-c3ccc(C[C@H](NC(=O)c4cc(F)c(NS(=O)(=O)c5ccc(NC(=O)C(C)(C)C)cc5)cc4F)C(=O)O)cc3)c2=O)C1 [Compound A41]
38 | 2500 | Cn1ccc(=O)n(-c2ccc(C[C@H](NC(=O)c3cc(F)c(NS(=O)(=O)c4ccc(NC(=O)C(C)(C)C)cc4)cc3F)C(=O)O)cc2)c1=O [Compound A42]
39 | 440 | Cn1c(=O)n(-c2ccc(C[C@H](NC(=O)c3cc(F)c(NS(=O)(=O)c4ccc(NC(=O)C(C)(C)C)cc4)cc3F)C(=O)O)cc2)c(=O)c2ccncc21 [Compound A1, (2S)-2-[[4-[[4-(2,2-dimethylpropanoylamino)phenyl]sulfonylamino]-2,5-difluoro-benzoyl]amino]-3-[4-(1-methyl-2,4-dioxo-pyrido[3,4-d]pyrimidin-3-yl)phenyl]propanoic acid]
40 | 1200 | COC1(C(=O)Nc2ccc(S(=O)(=O)Nc3cc(F)c(C(=O)N[C@@H](Cc4ccc(-n5c(=O)c6ccncc6n(C)c5=O)cc4)C(=O)O)cc3F)cc2)CC1 [Compound A16]
